From patent US20110052551A1, “CARDIAC MYOCYTE MORPHOGENIC COMPOSITIONS AND METHODS OF USE THEREFOR” (priority 2008, published 2011)
Entries after “also recorded” stand apart in the source; their conditions may differ.

B1: Dkk-1: soluble inhibitor of canonical signaling that blocks Wnt-signaling at the cell surface (protein, UniProt O94907 32-266, looked up)
Dickkopf-related protein 1: TLNSVLNSNAIKNLPPPLGGAAGHPGSAVSAAPGILYPGGNKYQTIDNYQPYPCAEDEECGTDEYCASPTRGGDAGVQICLACRKRRKRCMRHAMCCPGNYCKNGICVSSDQNHFRGEIEETITESFGNDHSTLDGYSRRTTLSSKMYHTKGQEGSVCLRSSDCASGLCCARHFWSKICKPVLKEGQVCTKHRRKGSHGLEIFQRCYCGEGLSCRIQKDHHQASNSSRLHTCQRH

Legend:
Format in all cases: cell-based, mice
[1] = test system: JNK phosphorylation in BMMNCs; assay: Western immunoblotting of Wnt11-induced JNK phosphorylation; conditions: 1 μM, 3 hours in Wnt11-CM
Method: Assessment of Wnt signaling. To investigate non-canonical signaling pathways, freshly isolated unfractionated BMMNCs were cultured in Wnt11-CM or in empty vector (control) medium in the presence or absence of 1 μM of the PKC inhibitor bisindolylmaleimide I (BIM, Sigma) for 3 hours followed by harvest and assessment of JNK phosphorylation by Western immunoblotting (see below and FIG. 9B). The expression of cardiac-specific gene expression in unfractionated BMMNCs was assessed by qRT-PCR following culture for 3 days in Wnt11-CM and empty vector (control) medium with and without PKC (BIM; 1 μM) and JNK (SP600125; 10 μM; Sigma) inhibitors (see FIG. 9B). Expression of Wnt3a and β-catenin were measured by qRT-PCR to investigate the effect of control, Wnt3a medium, and Wnt11-CM on canonical signaling.
(§1) Western immunoblotting and quantitative ELISA. […] Gel transfer efficiency was recorded carefully by making photocopies of membranes dyed with reversible Ponceau staining; gel retention was determined by Coomassie blue staining. […] Immunoreactive bands were visualized with horseradish peroxidase-conjugated anti-goat and anti-rabbit IgG (Santa Cruz Biotechnology) using an ECL detection kit (New England Nuclear, Billerica, Mass., United States of America), quantified by densitometry, and normalized GAPDH. […]

unfractionated BMMNCs [2] = assay: qRT-PCR of Wnt11-induced cardiac gene expression with PKC and JNK inhibitors; conditions: 3 days in Wnt11-CM, BIM 1 μM, SP600125 10 μM
Method: Assessment of mRNA expression by quantitative real-time RT-PCR (qRT-PCR). All qRT-PCR reagents and primers were purchased from Qiagen Inc. (Valencia, Calif., United States of America). Prior to mRNA extraction, cell number was determined and calculated by Trypan blue exclusion. cDNA was generated from freshly isolated (designated as baseline) and cultured unfractionated BMMNCs at days 0, 3, 7, and 21 (see FIG. 9A) using QUANTISCRIPT REVERSE TRANSCRIPTASE™ (Qiagen Inc., Valencia, Calif., United States of America) contained in RT master mix of Cell to cDNA kits according to manufacturer's protocol. […]
To avoid amplification of contaminating DNA, all validated qRT-PCR primers were designed to cross […] sequences within the cDNA to be amplified. Quantitative qRT-PCR analysis was performed in an ABI Prism 7900H sequence detection system (Applied Biosystems, Foster City, Calif.) using QUANTITECT™ SYBR® Green Real Time PCR kits. Each 50 μl qRT-PCR reaction contained 2 μl (approximately 50 ng) of cDNA, 5 μl of 1× primer mix (containing approximately 500 nM sense and anti-sense primers) and 25 μl of 2× QUANTITECT™ SYBR® Green master mix. […]
The PCR product level is calculated from the threshold cycle (Ct). That is, the amplification cycle number at which exponential PCR-generated gene-specific fluorescence is first detected (above a fixed threshold level). […]

unfractionated BMMNCs [3] = assay: cTnI ELISA in cultured BMMNCs; conditions: for effect on Wnt11-induced expression of cTnI: 21 days of culture in Wnt11-CM
Method: Assessment of cardiac differentiation. For quantitative assessment of cardiomyocytic differentiation, an average of 2400 cells/plate were counted. Multiple fields from all 4 quarters of the plate were systematically evaluated. The number of cells expressing cardiac-specific intracellular contractile proteins in each field was counted; the total number of cells was calculated based on nuclear staining with DAPI. In addition, cells were concomitantly stained with markers specific for various non-cardiac lineages (skeletal muscle [myogenin]; neural [nestin, GFAP]; myeloid [CD11b, Gr-1]; and others; Zuba-Surma et al., 2006). Cells were counted as positive when they were positive for cardiac-specific contractile proteins and negative for all of these markers. Thus, a rigorous method was employed to assess cardiac differentiation in vitro. The percentage of cells differentiating into cardiomyocytes was calculated as the number of cells positive for proteins divided by the total number of nuclei in the field. These experiments were performed in triplicate. As a confirmatory measure, the expression of cardiac-specific troponin I (cTnI) was determined by ELISA as described hereinbelow following culture in Wnt11-CM with and without the Wnt inhibitor Dickkopf-1 (Dkk-1; see FIG. 9C).
as §1, with “ELISA. Western analysis was performed as described in Guo et al., 1998; Brandon et al., 2000; Li et al., 2003; and Li et al., 2006.” for “ELISA.”, “GAPDH. In all samples, the content of target protein was expressed as a percentage of the controls (untreated), normalized to GAPDH.” for “GAPDH.”

| Molecule | Wnt11-induced JNK phosphorylation [1] | Wnt11-induced cardiac gene expression (unfractionated BMMNCs [2]) | Wnt11-induced cardiac gene expression (unfractionated BMMNCs [2]; listed as bisindolylmaleimide I) | effect on Wnt11-induced expression of cTnI (unfractionated BMMNCs [3]) | effect on Wnt11-induced expression of cTnI (unfractionated BMMNCs [3]; listed as Dickkopf-1) | effect on cTnI expression by itself (unfractionated BMMNCs [3]; 21 days of culture, without Wnt11-CM) |
| --- | --- | --- | --- | --- | --- | --- |
| CN(C)CCCn1cc(C2=C(c3c[nH]c4ccccc34)C(=O)NC2=O)c2ccccc21 [BIM, bisindolylmaleimide I] | completely blocked | abolished; also recorded: no expression | completely abolished | – | – | – |
| B1 | – | – | – | reduced | attenuated | little effect |
